According to article PMC6199251, “Oncolysis with DTT-205 and DTT-304 generates immunological memory in cured animals” (Cell Death & Disease, 2018):

Columns and labels:
caspase-3 = test: Caspase-3 activation (immunostaining of cleaved caspase-3); assay type: cell-based, human; settings: U2OS, 0.65 to 10 µM DTT peptides; staurosporine as positive control
Experimental: Fig. 3 Cell death induced by DTT-205 and DTT-304. Human osteosarcoma U2OS cells were treated with 0.65 to 10 µM DTT peptides for the indicated time and following assessed for the activation of caspase-3 (CASP3). The pan-kinase inhibitor staurosporine (STS) was used as positive control. Representative images (a, b) and quantifications of CASP3 activation (c, d) are depicted while pyknosis was assessed by measuring the decrease in Hoechst 33342-stained nuclear area (e, f) by conventional microscopy (size bar equals 10 µm; mean ± SD of triplicate assessments, Student’s t test, […], **p < 0.01, ***p < 0.001). In order to assess the cell death modality, U2OS cells were pretreated with the ferroptosis inhibitor ferrostatin-1 (FER-1), the pan-caspase inhibitor zVAD-fmk (zVAD) or the antioxidants N-actylcystein (NAC) and reduced glutathione (GSH) before the addition of 2.5 µM of DTT peptides (g, h). […] Mouse embryonic fibroblasts (MEFs) that were either wild type, single- or double knockout for the proapoptotic proteins Bax and/or Bak were treated with 0.65 to 10 µM of DTT-205 or DTT-304 and viability was assessed by means of an exclusion dye in epifluorescence microscopy (k, l; mean ± SD of triplicate assessments. Student’s t test, […], **p < 0.01, ***p < 0.001). […]

[1] = cited from earlier work
From the text: When added to human cancer cells, DTT-205 or DTT-304 stimulated a necrosis-like disruption of cellular morphology. […] Staining with the red fluorescent lipophilic dye Nile red confirmed the formation of lipid droplets in the cytoplasm of cells treated with DTT-205 or DTT-304 that occurred in a time and dose-dependent fas ...

U2OS cells = test: Lipid droplet formation (electron microscopy, Nile Red staining); assay type: cell-based, human; settings: 0.65 to 10 µM, 6 h, epifluorescence microscopy
Experimental: Fig. 1 DTT peptides induce the formation of lipid droplets. Human osteosarcoma U2OS cells were treated with 2.5 µM of either DTT-205 or DTT-304 for 6 h. Cells were fixed and subjected to electron microscopy. The overview micrographs in the upper panel depict necrotic morphologies (N) of some of the treated cells and the high magnification micrographs in the lower panel show the formation of lipid droplets (L) in intact cells. Size bars equals 10 µm (upper panel) and 1 µm (lower panel). Representative images (a) and quantifications (b, c) are depicted (mean ± SD of a minimum of five view fields). The formation of lipid droplets in response to increasing doses from 0.65 to 10 µM DTT peptides was quantified by means of the lipophilic dye Nile Red at 6 h and 24 h post treatment in epifluorescence microscopy. Representative images (d) and quantifications (e, f) are shown (mean ± SD of triplicate assessments, Student’s t test, […], **p < 0.01). Temperature dependency of the lipid droplet formation was assessed by keeping the cell cultures upon treatment with 0.65 to 10 µM DTT-205 (g) and DTT-304 (h) at the indicated temperature for 6 h before Nile Red staining. […]
Figure S2. […] The formation of lipid droplets in response to increasing doses from 0.65 to 10 µM DTT-peptides was quantified by means of the lipophilic dye Nile Red in epifluorescence microscopy. […]

Row | Molecule | caspase-3 activation (fraction of cells positive for mature caspase-3 fragment) (caspase-3) | cytotoxic potential in the presence of serum [1] | formation of lipid droplets (U2OS cells)
1 | CN[C@@H]1C[C@H]2O[C@@](C)([C@@H]1OC)n1c3ccccc3c3c4c(c5c6ccccc6n2c5c31)C(=O)NC4 [staurosporine] | a significant fraction of cells | – | –
2 | LTX-315 | – | lost their cytotoxic potential in the presence of serum | but not the LTX compounds, induced lipid droplets
